# Measurements: PubChem BioAssay (NCI)
#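 Protocol summary: plate cells (96-well), add compound at 5 concentrations, incubate 48 h, interpolate endpoints linearly. GI50 = concentration required for 50% inhibition of growth. TGI: concentration producing complete growth inhibition.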
# Key:
# Assay in all cases: NCI tumour cell line growth inhibition, 48 h
# COLO 205 colon = tested on: COLO 205 colon
# SK-MEL-5 melanoma = tested on: SK-MEL-5 melanoma
# HS 578T breast = tested on: HS 578T breast
# SNB-75 CNS = tested on: SNB-75 CNS
# SF-268 CNS = tested on: SF-268 CNS
# UACC-62 melanoma = tested on: UACC-62 melanoma
# SN12C renal = tested on: SN12C renal
# SNB-19 CNS = tested on: SNB-19 CNS
# MALME-3M melanoma = tested on: MALME-3M melanoma
# MOLT-4 leukemia = tested on: MOLT-4 leukemia
# SF-539 CNS = tested on: SF-539 CNS
# PC-3 prostate = tested on: PC-3 prostate
# DU-145 prostate = tested on: DU-145 prostate
# HL-60(TB) leukemia = tested on: HL-60(TB) leukemia
# K-562 leukemia = tested on: K-562 leukemia
# RXF 393 renal = tested on: RXF 393 renal
# UACC-257 melanoma = tested on: UACC-257 melanoma
# HT29 colon = tested on: HT29 colon
# SK-MEL-28 melanoma = tested on: SK-MEL-28 melanoma
# HCT-15 colon = tested on: HCT-15 colon
# MDA-MB-435 = tested on: MDA-MB-435
# SW-620 colon = tested on: SW-620 colon
# LOX IMVI melanoma = tested on: LOX IMVI melanoma
# U251 CNS = tested on: U251 CNS
# HOP-62 NSCLC = tested on: HOP-62 NSCLC
# OVCAR-3 ovarian = tested on: OVCAR-3 ovarian
# NCI-H522 lung = tested on: NCI-H522 lung
# 786-0 renal = tested on: 786-0 renal
# NCI/ADR-RES ovarian = tested on: NCI/ADR-RES ovarian
structure (smiles),measurement,setting,value
O=C1C=CC2(NN=C(c3ccccc3)N2c2ccccc2)c2cccc(O)c21 (configuration not stated),GI50,COLO 205 colon,1890 nM
same,TGI,COLO 205 colon,3830 nM
same,GI50,SK-MEL-5 melanoma,272 nM
same,TGI,SK-MEL-5 melanoma,706 nM
same,GI50,HS 578T breast,2860 nM
same,TGI,HS 578T breast,7630 nM
same,GI50,SNB-75 CNS,1820 nM
same,TGI,SNB-75 CNS,3440 nM
same,GI50,SF-268 CNS,1840 nM
same,TGI,SF-268 CNS,14300 nM
same,GI50,UACC-62 melanoma,1050 nM
same,TGI,UACC-62 melanoma,2260 nM
same,GI50,SN12C renal,1470 nM
same,TGI,SN12C renal,2840 nM
same,GI50,SNB-19 CNS,1590 nM
same,TGI,SNB-19 CNS,10800 nM
same,GI50,MALME-3M melanoma,1280 nM
same,TGI,MALME-3M melanoma,2580 nM
same,GI50,MOLT-4 leukemia,6810 nM
same,TGI,MOLT-4 leukemia,> 100000 nM
same,GI50,SF-539 CNS,1260 nM
same,TGI,SF-539 CNS,2790 nM
same,GI50,PC-3 prostate,3190 nM
same,TGI,PC-3 prostate,> 100000 nM
same,GI50,DU-145 prostate,1270 nM
same,TGI,DU-145 prostate,2560 nM
same,GI50,HL-60(TB) leukemia,2770 nM
same,TGI,HL-60(TB) leukemia,8030 nM
same,GI50,K-562 leukemia,1600 nM
same,TGI,K-562 leukemia,21000 nM
same,GI50,RXF 393 renal,7360 nM
same,TGI,RXF 393 renal,25000 nM
same,GI50,UACC-257 melanoma,1470 nM
same,TGI,UACC-257 melanoma,2930 nM
same,GI50,HT29 colon,2530 nM
same,TGI,HT29 colon,6210 nM
same,GI50,SK-MEL-28 melanoma,1990 nM
same,TGI,SK-MEL-28 melanoma,4380 nM
same,GI50,HCT-15 colon,472 nM
same,TGI,HCT-15 colon,2370 nM
same,GI50,MDA-MB-435,185 nM
same,TGI,MDA-MB-435,336 nM
same,GI50,SW-620 colon,1670 nM
same,TGI,SW-620 colon,3640 nM
same,GI50,LOX IMVI melanoma,275 nM
same,TGI,LOX IMVI melanoma,1280 nM
same,GI50,U251 CNS,587 nM
same,TGI,U251 CNS,20200 nM
same,GI50,HOP-62 NSCLC,693 nM
same,TGI,HOP-62 NSCLC,2220 nM
same,GI50,OVCAR-3 ovarian,1080 nM
same,TGI,OVCAR-3 ovarian,3700 nM
same,GI50,NCI-H522 lung,1210 nM
same,TGI,NCI-H522 lung,3400 nM
same,GI50,786-0 renal,6130 nM
same,TGI,786-0 renal,43000 nM
same,GI50,NCI/ADR-RES ovarian,1620 nM
